Reference: ChEMBL document CHEMBL5625192, “Discovery of Ibrutinib-based BTK PROTACs with in vivo anti-inflammatory efficacy by inhibiting NF-κB activation” (Eur J Med Chem, 2023)
In brackets after ≈: the same amount, converted by molar mass. Activity calls are given as the source filed them. No cut-off for these calls is given here.

Assays:
[1] = target: T1, Protein cereblon/Tyrosine-protein kinase BTK (Homo sapiens, UniProt Q06187+Q96SW2); test: PROTAC activity at CRBN/BTK in human Ramos cells assessed as induction of BTK degradation at 100 nM incubated for 24 hrs by Western blot analysis relative to control; type: cell-based
Target sequence in this assay (Q06187 2-659 limits assumed): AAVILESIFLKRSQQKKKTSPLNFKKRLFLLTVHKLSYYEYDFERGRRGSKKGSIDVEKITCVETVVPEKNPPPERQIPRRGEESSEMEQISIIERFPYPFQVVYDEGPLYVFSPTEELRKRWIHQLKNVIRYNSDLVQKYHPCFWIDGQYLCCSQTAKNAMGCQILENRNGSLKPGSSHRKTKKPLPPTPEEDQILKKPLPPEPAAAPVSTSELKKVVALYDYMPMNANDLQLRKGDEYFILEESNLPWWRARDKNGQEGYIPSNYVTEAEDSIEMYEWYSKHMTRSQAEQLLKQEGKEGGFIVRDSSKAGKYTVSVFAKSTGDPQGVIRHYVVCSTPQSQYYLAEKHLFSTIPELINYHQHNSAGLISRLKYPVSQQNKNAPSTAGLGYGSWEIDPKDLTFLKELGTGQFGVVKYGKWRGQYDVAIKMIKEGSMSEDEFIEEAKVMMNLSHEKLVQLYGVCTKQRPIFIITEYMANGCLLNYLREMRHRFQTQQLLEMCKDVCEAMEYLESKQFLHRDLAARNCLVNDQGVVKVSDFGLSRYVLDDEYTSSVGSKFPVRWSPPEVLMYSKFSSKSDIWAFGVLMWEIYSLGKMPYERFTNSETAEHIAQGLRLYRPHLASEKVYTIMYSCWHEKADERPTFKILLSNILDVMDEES
Target sequence in this assay (Q96SW2 whole entry partner): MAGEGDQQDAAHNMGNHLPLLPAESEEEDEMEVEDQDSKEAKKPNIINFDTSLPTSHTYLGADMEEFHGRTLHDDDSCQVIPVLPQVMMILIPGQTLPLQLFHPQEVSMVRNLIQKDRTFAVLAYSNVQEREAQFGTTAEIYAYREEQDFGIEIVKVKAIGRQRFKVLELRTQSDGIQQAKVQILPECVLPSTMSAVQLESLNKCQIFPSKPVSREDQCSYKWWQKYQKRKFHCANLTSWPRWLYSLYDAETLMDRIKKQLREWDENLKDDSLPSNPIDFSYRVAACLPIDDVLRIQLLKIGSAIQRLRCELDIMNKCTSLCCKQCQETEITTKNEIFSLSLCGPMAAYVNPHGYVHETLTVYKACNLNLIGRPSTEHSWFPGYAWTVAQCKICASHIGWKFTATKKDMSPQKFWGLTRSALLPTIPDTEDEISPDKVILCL

[2] = target: T1, Protein cereblon/Tyrosine-protein kinase BTK; test: PROTAC activity at CRBN/BTK in human Ramos cells assessed as induction of BTK degradation incubated for 24 hrs by Western blot analysis; type: cell-based
Target sequence in this assay (Q06187 whole entry): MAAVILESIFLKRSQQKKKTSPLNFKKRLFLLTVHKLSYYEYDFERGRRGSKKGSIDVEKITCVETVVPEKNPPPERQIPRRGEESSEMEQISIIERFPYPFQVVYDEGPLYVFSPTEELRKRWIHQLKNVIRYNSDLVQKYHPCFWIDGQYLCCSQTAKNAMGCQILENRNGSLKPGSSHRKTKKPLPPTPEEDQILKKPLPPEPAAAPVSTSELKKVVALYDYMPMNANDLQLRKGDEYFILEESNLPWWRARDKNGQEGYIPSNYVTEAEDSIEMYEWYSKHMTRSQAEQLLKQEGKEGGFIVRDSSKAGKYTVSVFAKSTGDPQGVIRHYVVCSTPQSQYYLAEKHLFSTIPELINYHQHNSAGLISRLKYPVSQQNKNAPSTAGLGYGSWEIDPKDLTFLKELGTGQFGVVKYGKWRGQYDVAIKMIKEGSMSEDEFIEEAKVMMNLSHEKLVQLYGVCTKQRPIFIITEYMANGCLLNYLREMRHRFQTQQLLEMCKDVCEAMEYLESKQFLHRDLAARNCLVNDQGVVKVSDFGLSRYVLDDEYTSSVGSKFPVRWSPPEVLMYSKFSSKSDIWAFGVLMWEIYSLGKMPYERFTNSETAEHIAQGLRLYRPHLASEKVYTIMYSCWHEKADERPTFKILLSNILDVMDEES
Target sequence in this assay (Q96SW2 whole entry): as the sequence (Q96SW2 whole entry partner) above

[3] = target: T1, Protein cereblon/Tyrosine-protein kinase BTK; test: PROTAC activity at CRBN/BTK in human Ramos cells assessed as induction of BTK degradation by measuring maximal efficacy incubated for 24 hrs by Western blot analysis relative to control; type: cell-based
Target sequence in this assay (Q06187 2-659 limits assumed): as the sequence (Q06187 2-659 limits assumed) above
Target sequence in this assay (Q96SW2 whole entry partner): as the sequence (Q96SW2 whole entry partner) above

[4] = target: T1, Protein cereblon/Tyrosine-protein kinase BTK; test: PROTAC activity at CRBN/BTK in human Ramos cells assessed as hook effect at 10000 nM incubated for 24 hrs by Western blot analysis; type: cell-based
Target sequence in this assay (Q06187 2-659 limits assumed): as the sequence (Q06187 2-659 limits assumed) above
Target sequence in this assay (Q96SW2 whole entry partner): as the sequence (Q96SW2 whole entry partner) above

[5] = target: T1, Protein cereblon/Tyrosine-protein kinase BTK; test: PROTAC activity at CRBN/BTK in human MINO cells assessed as induction of BTK degradation incubated for 24 hrs by Western blot analysis; type: cell-based
Target sequence in this assay (Q06187 whole entry): as the sequence (Q06187 whole entry) above
Target sequence in this assay (Q96SW2 whole entry): as the sequence (Q96SW2 whole entry partner) above

[6] = target: T1, Protein cereblon/Tyrosine-protein kinase BTK; test: PROTAC activity at CRBN/BTK in human MINO cells assessed as induction of BTK degradation by measuring maximal efficacy incubated for 24 hrs by Western blot analysis relative to control; type: cell-based
Target sequence in this assay (Q06187 2-659 limits assumed): as the sequence (Q06187 2-659 limits assumed) above
Target sequence in this assay (Q96SW2 whole entry partner): as the sequence (Q96SW2 whole entry partner) above

[7] = target: T1, Protein cereblon/Tyrosine-protein kinase BTK; test: PROTAC activity at CRBN/BTK in human MINO cells assessed as hook effect upto 10000 nM incubated for 24 hrs by Western blot analysis; type: cell-based
Target sequence in this assay (Q06187 2-659 limits assumed): as the sequence (Q06187 2-659 limits assumed) above
Target sequence in this assay (Q96SW2 whole entry partner): as the sequence (Q96SW2 whole entry partner) above

[8] = target: T1, Protein cereblon/Tyrosine-protein kinase BTK; test: PROTAC activity at CRBN/BTK in human Ramos cells assessed as induction of BTK degradation at 100 nM measured within 4 hrs by Western blot analysis; type: cell-based
Target sequence in this assay (Q06187 2-659 limits assumed): as the sequence (Q06187 2-659 limits assumed) above
Target sequence in this assay (Q96SW2 whole entry partner): as the sequence (Q96SW2 whole entry partner) above

[9] = target: T1, Protein cereblon/Tyrosine-protein kinase BTK; test: PROTAC activity at CRBN/BTK in human Ramos cells assessed as induction of BTK degradation at 100 nM measured after 8 hrs by Western blot analysis relative to control; type: cell-based
[10] = target: T1, Protein cereblon/Tyrosine-protein kinase BTK; test: PROTAC activity at CRBN/BTK in human Ramos cells assessed as induction of BTK degradation at 100 nM pretreated with ibrutinib for 2 hrs followed by compound treatment and measured after 8 hrs by Western blot analysis; type: cell-based
[11] = target: T1, Protein cereblon/Tyrosine-protein kinase BTK; test: PROTAC activity at CRBN/BTK in human Ramos cells assessed as induction of BTK degradation at 100 nM pretreated with pomalidomide for 2 hrs followed by compound treatment and measured after 8 hrs by Western blot analysis; type: cell-based
[12] = target: T1, Protein cereblon/Tyrosine-protein kinase BTK; test: PROTAC activity at CRBN/BTK in human Ramos cells assessed as induction of BTK degradation at 100 nM pretreated with MG132 for 2 hrs followed by compound treatment and measured after 8 hrs by Western blot analysis; type: cell-based
[13] = target: T1, Protein cereblon/Tyrosine-protein kinase BTK; test: PROTAC activity at CRBN/BTK in human Ramos cells assessed as induction of BTK degradation at 100 nM pretreated with bafilomycin for 2 hrs followed by compound treatment and measured after 8 hrs by Western blot analysis; type: cell-based
[14] = target: T1, Protein cereblon/Tyrosine-protein kinase BTK; test: PROTAC activity at CRBN/BTK in human Ramos cells assessed as induction of BTK degradation at 100 nM pretreated with compound for 24 hrs followed by compound washout and measured upto 48 hrs by Western blot analysis; type: cell-based
RAW264.7 [15] = test: Cytotoxicity against mouse RAW264.7 cells assessed as reduction in cell viability upto 10 uM incubated for 24 hrs by CCK8 assay; type: toxicity, cell-based; conditions: raw264.7, 24 h
[16] = target: Protein cereblon/Tyrosine-protein kinase BTK (Mus musculus) (UniProt P35991+Q8C7D2); test: PROTAC activity at CRBN/BTK in mouse RAW264.7 cells assessed as induction of BTK degradation by Western blot analysis; type: cell-based; conditions: dose 0.1-10 µM
Chain of Protein cereblon/Tyrosine-protein kinase BTK (Mus musculus) (P35991 whole entry, looked up): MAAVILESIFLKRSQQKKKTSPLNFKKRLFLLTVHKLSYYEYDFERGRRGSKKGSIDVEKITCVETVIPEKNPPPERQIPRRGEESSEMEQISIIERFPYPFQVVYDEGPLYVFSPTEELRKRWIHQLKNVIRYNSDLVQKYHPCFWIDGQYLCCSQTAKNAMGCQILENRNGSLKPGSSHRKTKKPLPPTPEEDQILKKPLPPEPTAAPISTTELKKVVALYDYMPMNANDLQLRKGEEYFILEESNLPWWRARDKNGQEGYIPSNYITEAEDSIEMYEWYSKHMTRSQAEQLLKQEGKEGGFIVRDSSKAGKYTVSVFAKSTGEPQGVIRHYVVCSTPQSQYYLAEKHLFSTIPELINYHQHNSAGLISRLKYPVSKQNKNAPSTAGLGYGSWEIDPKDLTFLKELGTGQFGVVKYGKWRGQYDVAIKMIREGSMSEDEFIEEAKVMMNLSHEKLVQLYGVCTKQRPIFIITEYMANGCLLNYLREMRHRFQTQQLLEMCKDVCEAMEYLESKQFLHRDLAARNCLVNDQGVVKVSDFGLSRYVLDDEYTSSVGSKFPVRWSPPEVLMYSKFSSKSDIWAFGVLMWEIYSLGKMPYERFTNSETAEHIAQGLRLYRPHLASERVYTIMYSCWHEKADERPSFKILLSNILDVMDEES
Chain of Protein cereblon/Tyrosine-protein kinase BTK (Mus musculus) (Q8C7D2 whole entry, looked up): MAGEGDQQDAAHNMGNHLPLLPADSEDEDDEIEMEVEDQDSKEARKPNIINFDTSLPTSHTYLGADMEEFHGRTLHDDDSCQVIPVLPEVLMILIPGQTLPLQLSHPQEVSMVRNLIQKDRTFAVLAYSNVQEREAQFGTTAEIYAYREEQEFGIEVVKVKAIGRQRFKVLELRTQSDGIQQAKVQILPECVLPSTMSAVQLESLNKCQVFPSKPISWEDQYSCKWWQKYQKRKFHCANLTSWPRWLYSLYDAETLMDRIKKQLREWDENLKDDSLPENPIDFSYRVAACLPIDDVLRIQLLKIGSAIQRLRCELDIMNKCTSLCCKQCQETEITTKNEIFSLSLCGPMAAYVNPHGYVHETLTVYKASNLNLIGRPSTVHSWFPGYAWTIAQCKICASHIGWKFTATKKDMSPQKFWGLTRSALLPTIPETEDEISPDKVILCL

RAW264.7 [17] = test: Inhibition of NF-kappaB activation in LPS-stimulated mouse RAW264.7 cells assessed as reduction in phosphorylated BTK level at 0.1 to 10 uM preincubated with compound for 1 hrs followed by LPS stimulation and measured after 24 hrs by Western blot analysis; type: cell-based; conditions: dose 0.1-10 µM, time 25.0 hrs
RAW264.7 [18] = test: Inhibition of NF-kappaB activation in LPS-stimulated mouse RAW264.7 cells assessed as reduction in phosphorylated p65 level at 0.1 to 10 uM preincubated with compound for 1 hrs followed by LPS stimulation and measured after 24 hrs by Western blot analysis; type: cell-based; conditions: dose 0.1-10 µM, time 25.0 hrs
RAW264.7 [19] = test: Inhibition of NF-kappaB activation in LPS-stimulated mouse RAW264.7 cells assessed as prevention of IkappaB-alpha degradation at 0.1 to 10 uM preincubated with compound for 1 hrs followed by LPS stimulation and measured after 24 hrs by Western blot analysis; type: cell-based; conditions: dose 0.1-10 µM, time 25.0 hrs
RAW264.7 [20] = test: Inhibition of NF-kappaB activation in LPS-stimulated mouse RAW264.7 cells assessed as inhibition of IkappaB-alpha phosphorylation at 0.1 to 10 uM preincubated with compound for 1 hrs followed by LPS stimulation and measured after 24 hrs by Western blot analysis; type: cell-based; conditions: dose 0.1-10 µM, time 25.0 hrs
RAW264.7 [21] = test: Anti-inflammatory activity in LPS-stimulated mouse RAW264.7 cells assessed as reduction in IL-1beta mRNA level preincubated with compound for 2 hrs followed by LPS stimulation and measured after 3 hrs […]; type: functional, cell-based; conditions: dose 0.1-10 µM, time 5.0 hrs
RAW264.7 [22] = test: Anti-inflammatory activity in LPS-stimulated mouse RAW264.7 cells assessed as reduction in IL-1beta secretion at 0.1 to 10 uM preincubated with compound for 2 hrs followed by LPS stimulation and measured after 3 hrs by ELISA analysis; type: functional, cell-based; conditions: dose 0.1-10 µM, time 5.0 hrs
RAW264.7 [23] = test: Anti-inflammatory activity in LPS-stimulated mouse RAW264.7 cells assessed as reduction in IL-6 mRNA level preincubated with compound for 2 hrs followed by LPS stimulation and measured after 3 hrs […]; type: functional, cell-based; conditions: dose 0.1-10 µM, time 5.0 hrs
RAW264.7 [24] = test: Anti-inflammatory activity in LPS-stimulated mouse RAW264.7 cells assessed as reduction in IL-6 secretion at 0.1 to 10 uM preincubated with compound for 2 hrs followed by LPS stimulation and measured after 3 hrs by ELISA analysis; type: functional, cell-based; conditions: dose 0.1-10 µM, time 5.0 hrs
Mus musculus [25] = test: Anti-inflammatory activity in zymosan-induced peritonitis C57BL/6J mouse model assessed as reduction in myeloid cells in peritoneal cavity preadministered intraperitoneally with compound for 1 hrs followed by zymosan administration and measured after 16 hrs by trypan blue staining based optical microscopic analysis; type: functional, organism-based; conditions: dose 10-50 mg/kg, route ip, time 17.0 hrs
Mus musculus [26] = test: Anti-inflammatory activity in zymosan-induced peritonitis C57BL/6J mouse model assessed as decrease in IL-1beta level in peritoneal cavity preadministered intraperitoneally with compound for 1 hrs followed by zymosan administration and measured after 16 hrs by ELISA; type: functional, organism-based; conditions: dose 10-50 mg/kg, route ip, time 17.0 hrs
Mus musculus [27] = test: Anti-inflammatory activity in zymosan-induced peritonitis C57BL/6J mouse model assessed as decrease in IL-6 level in peritoneal cavity preadministered intraperitoneally with compound for 1 hrs followed by zymosan administration and measured after 16 hrs by ELISA; type: functional, organism-based; conditions: dose 10-50 mg/kg, route ip, time 17.0 hrs
[28] = AUC (0 to t) in Sprague-Dawley rat at 2 mg/kg, iv measured after 48 hrs by UPLC analysis; type: ADME, organism-based; conditions: in vivo
[29] = AUC (0 to infinity) in Sprague-Dawley rat at 2 mg/kg, iv measured after 48 hrs by UPLC analysis; type: ADME, organism-based; conditions: in vivo
[30] = MRT (0 to t) in Sprague-Dawley rat at 2 mg/kg, iv measured after 48 hrs by UPLC analysis; type: ADME, organism-based; conditions: in vivo
[31] = MRT (0 to infinity) in Sprague-Dawley rat at 2 mg/kg, iv measured after 48 hrs by UPLC analysis; type: ADME, organism-based; conditions: in vivo
[32] = Half-life in Sprague-Dawley rat at 2 mg/kg, iv measured after 48 hrs by UPLC analysis; type: ADME, organism-based; conditions: in vivo
[33] = Apparent volume of distribution in Sprague-Dawley rat at 2 mg/kg, iv measured after 48 hrs by UPLC analysis; type: ADME, organism-based; conditions: in vivo, read-out: Vz
[34] = Clearance in Sprague-Dawley rat at 2 mg/kg, iv measured after 48 hrs by UPLC analysis; type: ADME, organism-based; conditions: in vivo
[35] = Cmax in Sprague-Dawley rat at 2 mg/kg, iv measured after 48 hrs by UPLC analysis; type: ADME, organism-based; conditions: in vivo
[36] = AUC (0 to t) in Sprague-Dawley rat at 20 mg/kg, po by UPLC analysis; type: ADME, organism-based; conditions: in vivo
[37] = AUC (0 to infinity) in Sprague-Dawley rat at 20 mg/kg, po by UPLC analysis; type: ADME, organism-based; conditions: in vivo
[38] = MRT (0 to t) in Sprague-Dawley rat at 20 mg/kg, po by UPLC analysis; type: ADME, organism-based; conditions: in vivo
[39] = MRT (0 to infinity) in Sprague-Dawley rat at 20 mg/kg, po by UPLC analysis; type: ADME, organism-based; conditions: in vivo
[40] = Half-life in Sprague-Dawley rat at 20 mg/kg, po by UPLC analysis; type: ADME, organism-based; conditions: in vivo
[41] = Cmax in Sprague-Dawley rat at 20 mg/kg, po by UPLC analysis; type: ADME, organism-based; conditions: in vivo
[42] = Oral bioavailability in Sprague-Dawley rat at 20 mg/kg by UPLC analysis; type: ADME, organism-based; conditions: in vivo
[43] = Aqueous solubility of compound incubated for 24 hrs by HPLC based shake flask method; type: physicochemical; conditions: buffer

Nc1ncnc2c1c(-c1ccc(Oc3ccccc3)cc1)nn2C1CCN(C(=O)CN2CCN(CC3CN(c4ccc5c(c4)C(=O)N(C4CCC(=O)NC4=O)C5=O)C3)CC2)CC1 (stereo not drawn)
Activity [1]: 99.4%
EC50 [2]: 3.18 nM
Emax [3]: 99.9%
Activity [4]: Active
EC50 [5]: 7.07 nM
Emax [6]: 100%
Activity [7]: inactive
Activity [8]: Active
Activity [9]: 100%
Activity [10]: inactive
Activity [11]: inactive
Activity [12]: inactive
Activity [13]: Active
Activity [14]: Active
Activity (RAW264.7 [15]): Non-Toxic
Activity [16]: Dose-Dependent Effect
inhibition (RAW264.7 [17]): Active
inhibition (RAW264.7 [18]): Active
inhibition (RAW264.7 [19]): Active
inhibition (RAW264.7 [20]): Active
Activity (RAW264.7 [21]): Dose-Dependent Effect
Activity (RAW264.7 [22]): Active
Activity (RAW264.7 [23]): Dose-Dependent Effect
Activity (RAW264.7 [24]): Active
Activity (Mus musculus [25]): Dose-Dependent Effect
Activity (Mus musculus [26]): Dose-Dependent Effect
Activity (Mus musculus [27]): Dose-Dependent Effect
AUC(0-t) at 48 h [28]: 926 ng·h/mL
AUC(0-inf) [29]: 934 ng·h/mL
MRT last at 48 h [30]: 1.27 h
MRT inf [31]: 1.37 h
half-life [32]: 1.82 h
Vd [33]: 5.85 L/kg
clearance [34]: 37.5 mL/min/kg
Cmax [35]: 1890 ng/mL
AUC(0-t) [36]: 27.1 ng·h/mL
AUC(0-inf) [37]: 29 ng·h/mL
MRT last [38]: 4.95 h
MRT inf [39]: 5.23 h
half-life [40]: 2.12 h
Cmax [41]: 9.7 ng/mL
bioavailability [42]: 0.25%
solubility thermodynamic at 24 h [43]: 8.16 µg/mL (≈ 9.74 µM)
